# Measured values as given in BindingDB's records for doi:10.1016/j.bmcl.2019.05.020 (Meiji Pharmaceutical University, 2019).
# Molecular target: Amyloid-beta precursor protein (Homo sapiens, UniProt P05067)
# Assay: Inhibition of human amyloid beta (1 to 40) assessed as reduction in aggregation measured after 24 hrs by ThT fluorescence assay
# Chain of Amyloid-beta precursor protein (P05067 whole entry): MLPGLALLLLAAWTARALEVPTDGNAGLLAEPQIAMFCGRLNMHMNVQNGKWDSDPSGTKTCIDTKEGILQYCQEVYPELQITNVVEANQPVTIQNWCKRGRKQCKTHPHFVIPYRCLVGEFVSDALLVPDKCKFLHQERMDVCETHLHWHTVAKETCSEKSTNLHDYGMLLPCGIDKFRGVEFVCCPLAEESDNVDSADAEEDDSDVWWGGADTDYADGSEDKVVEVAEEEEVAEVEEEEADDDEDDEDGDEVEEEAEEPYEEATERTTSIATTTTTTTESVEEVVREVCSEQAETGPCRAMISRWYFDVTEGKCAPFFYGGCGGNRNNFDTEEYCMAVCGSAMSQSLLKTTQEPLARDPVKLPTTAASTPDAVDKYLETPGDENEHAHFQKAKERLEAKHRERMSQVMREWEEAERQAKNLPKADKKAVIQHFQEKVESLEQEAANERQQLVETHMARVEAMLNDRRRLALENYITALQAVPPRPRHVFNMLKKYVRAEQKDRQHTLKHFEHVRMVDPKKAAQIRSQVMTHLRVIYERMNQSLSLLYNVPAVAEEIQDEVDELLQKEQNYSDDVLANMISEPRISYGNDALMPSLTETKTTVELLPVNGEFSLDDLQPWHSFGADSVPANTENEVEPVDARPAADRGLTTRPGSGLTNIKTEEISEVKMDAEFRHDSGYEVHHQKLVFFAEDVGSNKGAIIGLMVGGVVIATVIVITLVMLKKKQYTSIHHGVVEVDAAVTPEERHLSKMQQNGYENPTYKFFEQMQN
row,SMILES,IC50
1,COc1cc2oc(-c3ccc(OC)c(-c4c(OC)cc(O)c5c(=O)cc(-c6ccc(O)cc6)oc45)c3)cc(O)c-2c(=O)c1 [7-O-methyl-isoginkgetin],> 50 µM
2,COc1ccc(-c2cc(=O)c3c(O)cc(OC)c(-c4cc(-c5cc(O)c6c(=O)cc(OC)cc-6o5)ccc4O)c3o2)cc1 [heveaflavone],> 50 µM
3,COc1ccc(-c2cc(=O)c3c(O)cc(OC)c(-c4cc(-c5cc(O)c6c(=O)cc(O)cc-6o5)ccc4OC)c3o2)cc1 [kayaflavone],> 50 µM
4,COc1ccc(-c2cc(=O)c3c(O)cc(O)c(-c4cc(-c5cc(O)c6c(=O)cc(OC)cc-6o5)ccc4OC)c3o2)cc1 [sciadopitisin],> 50 µM
5,COc1cc(O)c2c(=O)cc(-c3ccc(O)cc3)oc2c1-c1cc(-c2cc(O)c3c(=O)cc(O)cc-3o2)ccc1O [sotetsuflavone],> 50 µM

# Next, values leading:
row,IC50,SMILES
1,4.9 µM,COc1ccc(-c2cc(=O)c3c(O)cc(O)c(-c4cc(-c5cc(O)c6c(=O)cc(O)cc-6o5)ccc4O)c3o2)cc1 [4'''-methylamentoflavone]
2,> 50 µM,"COc1ccc(-c2cc(O)c3c(=O)cc(O)cc-3o2)cc1-c1c(OC)cc(O)c2c(=O)cc(-c3ccc(O)cc3)oc12 [4',7''-di-O-methyl-amentoflavone]"
3,> 50 µM,"COc1ccc(-c2cc(=O)c3c(O)cc(OC)c(-c4cc(-c5cc(O)c6c(=O)cc(OC)cc-6o5)ccc4OC)c3o2)cc1 [7,4',7'',4'''-O-methyl-amentoflavone]"
4,4.9 µM,COc1cc2oc(-c3ccc(O)c(-c4c(O)cc(O)c5c(=O)cc(-c6ccc(O)cc6)oc45)c3)cc(O)c-2c(=O)c1 [sequoiaflavone]
